± gives the expanded uncertainty stated by the source.
Assay: molar heat capacity at constant pressure
Conditions: 101.33 kPa, Crystal, Small (less than 1 g) adiabatic calorimetry

O.O=C([O-])[C@H](O)[C@@H](O)CO.O=C([O-])[C@H](O)[C@@H](O)CO.[Cu+2] [copper(II) (2R,3S)-2,3,4-trihydroxybutanoate hydrate]
Conditions	molar heat capacity at constant pressure [J/K/mol]
77.95 K	157.12 ± 1.1
78.77 K	158.43 ± 1.1
79.58 K	159.75 ± 1.1
81.05 K	161.91 ± 1.2
83.23 K	165.7 ± 1.2
85.3 K	168.87 ± 1.2
87.33 K	172.05 ± 1.2
89.3 K	175.55 ± 1.3
91.24 K	178.89 ± 1.2
93.14 K	182.28 ± 1.3
95.01 K	185.29 ± 1.3
96.85 K	188.44 ± 1.3
98.65 K	191.21 ± 1.3
100.44 K	194.62 ± 1.4
102.18 K	197.16 ± 1.4
103.92 K	200.13 ± 1.4
105.63 K	203.01 ± 1.4
107.32 K	205.34 ± 1.4
109 K	207.51 ± 1.4
110.66 K	210.17 ± 1.5
112.29 K	213.09 ± 1.5
113.91 K	215.33 ± 1.5
115.53 K	217.99 ± 1.5
117.12 K	220.64 ± 1.5
118.7 K	222.67 ± 1.5
120.28 K	224.56 ± 1.6
121.83 K	227.52 ± 1.6
123.37 K	230.1 ± 1.6
124.9 K	231.86 ± 1.6
127.77 K	236.46 ± 1.6
132.03 K	242.38 ± 1.7
136.29 K	248.21 ± 1.7
140.39 K	253.18 ± 1.7
144.49 K	258.87 ± 1.8
148.5 K	263.42 ± 1.8
152.44 K	269.25 ± 1.9
156.37 K	273.65 ± 1.9
160.22 K	278.91 ± 1.9
163.99 K	283.6 ± 1.9
167.76 K	289.57 ± 2
171.53 K	294.4 ± 2
175.22 K	298.81 ± 2
178.91 K	303.93 ± 2.1
182.51 K	308.62 ± 2.1
186.04 K	314.59 ± 2.1
189.63 K	319.74 ± 2.2
193.17 K	324.58 ± 2.2
196.61 K	329.37 ± 2.2
200.05 K	333.92 ± 2.3
203.48 K	338.93 ± 2.3
206.76 K	344.03 ± 2.4
210.14 K	349.72 ± 2.4
213.41 K	353.68 ± 2.4
216.7 K	358.82 ± 2.4
219.87 K	365.27 ± 2.5
223.07 K	370.33 ± 2.5
226.27 K	374.9 ± 2.5
229.39 K	380.28 ± 2.6
232.43 K	385.56 ± 2.6
235.45 K	390.94 ± 2.7
238.48 K	396.17 ± 2.7
241.43 K	401.58 ± 2.7
244.3 K	406.42 ± 2.8
247.25 K	410.96 ± 2.8
250.17 K	415.09 ± 2.8
253.07 K	420.05 ± 2.9
255.94 K	424.32 ± 2.9
258.81 K	430.57 ± 2.9
261.59 K	435.83 ± 3
264.38 K	439.95 ± 3
267.25 K	446.35 ± 3
269.95 K	449.9 ± 3
272.74 K	455.45 ± 3.1
275.44 K	460.56 ± 3.1
278.15 K	465.27 ± 3.1
280.87 K	471.63 ± 3.2
283.46 K	476.96 ± 3.2
286.11 K	481.85 ± 3.3
288.64 K	486.29 ± 3.3
291.26 K	492.12 ± 3.3
293.8 K	496.38 ± 3.4
296.18 K	501.64 ± 3.4
298.72 K	506.76 ± 3.4
301.34 K	511.59 ± 3.5
304.73 K	517.6 ± 3.5
308.01 K	525.08 ± 3.5
311.68 K	533.37 ± 3.6
315.35 K	539.96 ± 3.6
318.3 K	546.62 ± 3.7
321.22 K	553.21 ± 3.7
324.17 K	560.99 ± 3.8
327.09 K	567.58 ± 3.8
330.19 K	573.7 ± 3.9
333.38 K	581.34 ± 3.9
336.12 K	586.57 ± 4
338.87 K	593.18 ± 4
341.62 K	602.58 ± 4.1
344.26 K	609.21 ± 4.1
346.73 K	617.4 ± 4.2
349.06 K	625.08 ± 4.2
351.28 K	633.61 ± 4.3
353.44 K	639.41 ± 4.3
355.51 K	652.09 ± 4.4
